We go through 4 molecules from ChEMBL document CHEMBL1777701, “Glucosides with cyclic diarylpolynoid as novel C-aryl glucoside SGLT2 inhibitors” (Bioorg Med Chem Lett, 2011).

One may read the IC50 as the concentration needed to halve the response being measured. Read a low IC50 as higher potency.

This experiment concerns the target T1, Sodium/glucose cotransporter 2 (Homo sapiens, UniProt P31639).
T1 sequence (P31639 whole entry): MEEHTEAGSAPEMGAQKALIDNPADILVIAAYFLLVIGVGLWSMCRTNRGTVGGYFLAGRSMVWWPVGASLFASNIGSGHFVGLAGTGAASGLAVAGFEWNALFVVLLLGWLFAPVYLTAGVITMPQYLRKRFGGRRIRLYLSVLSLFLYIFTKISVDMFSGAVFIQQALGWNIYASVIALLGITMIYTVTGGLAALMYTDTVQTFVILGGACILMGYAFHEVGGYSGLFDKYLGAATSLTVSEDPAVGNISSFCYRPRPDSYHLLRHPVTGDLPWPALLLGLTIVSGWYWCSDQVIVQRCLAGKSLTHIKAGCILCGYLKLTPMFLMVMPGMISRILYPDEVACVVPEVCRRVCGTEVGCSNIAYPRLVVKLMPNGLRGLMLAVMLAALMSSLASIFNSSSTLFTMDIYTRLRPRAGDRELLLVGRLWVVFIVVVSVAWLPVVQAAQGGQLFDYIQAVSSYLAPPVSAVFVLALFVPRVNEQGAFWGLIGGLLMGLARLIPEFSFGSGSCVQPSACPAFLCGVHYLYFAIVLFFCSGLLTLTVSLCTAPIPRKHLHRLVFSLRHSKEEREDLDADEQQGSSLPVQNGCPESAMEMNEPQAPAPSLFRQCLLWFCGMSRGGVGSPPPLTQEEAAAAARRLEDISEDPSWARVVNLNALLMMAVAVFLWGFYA
In words: Inhibition of human SGLT2 expressed in CHO cells using methyl-alpha-D-glucopyranoside by liquid scintillation counting. The format is cell-based.
With `OC[C@H]1O[C@@H](c2ccc3c(c2)Cc2ccc(cc2)OC/C=C/CCCC3)[C@H](O)[C@@H](O)[C@@H]1O`, it took 103 nM to reach half-maximal inhibition (IC50).

In turn, `OC[C@H]1O[C@@H](c2ccc3c(c2)Cc2ccc(cc2)OCCCCCC3)[C@H](O)[C@@H](O)[C@@H]1O` yielded an IC50 of 81.9 nM.

On to `OC[C@H]1O[C@@H](c2ccc3c(c2)Cc2ccc(cc2)OCCCCCCC3)[C@H](O)[C@@H](O)[C@@H]1O`, for which 99.7 nM corresponded to half-maximal inhibition (IC50).

As to `OC[C@H]1O[C@@H](c2ccc3c(c2)Cc2ccc(cc2)OC/C=C/CCC3)[C@H](O)[C@@H](O)[C@@H]1O`, it took 89.6 nM to reach half-maximal inhibition (IC50).
